In PubChem BioAssay (NCI):
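Cells were grown in 96-well plates and exposed to each compound for 48 hours at five concentrations; endpoints were interpolated linearly between bracketing concentrations, or set to the highest concentration if not reached. TGI denotes the concentration required for complete inhibition of growth.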

Legend:
Experiment in all cases: NCI anticancer screen, dose series, 48 h
NCI-H522 lung = test system: NCI-H522 lung
NCI-H23 lung = test system: NCI-H23 lung
RXF 393 renal = test system: RXF 393 renal
XF 498 CNS = test system: XF 498 CNS
SK-OV-3 ovarian = test system: SK-OV-3 ovarian
OVCAR-8 ovarian = test system: OVCAR-8 ovarian
SK-MEL-5 melanoma = test system: SK-MEL-5 melanoma
786-0 renal = test system: 786-0 renal
KM20L2 colon = test system: KM20L2 colon
CAKI-1 renal = test system: CAKI-1 renal
RPMI-8226 leukemia = test system: RPMI-8226 leukemia
SNB-19 CNS = test system: SNB-19 CNS
HOP-18 NSCLC = test system: HOP-18 NSCLC
SK-MEL-28 melanoma = test system: SK-MEL-28 melanoma
HCT-15 colon = test system: HCT-15 colon
NCI-H460 lung = test system: NCI-H460 lung
SW-620 colon = test system: SW-620 colon
UACC-62 melanoma = test system: UACC-62 melanoma
SF-539 CNS = test system: SF-539 CNS
M19-MEL melanoma = test system: M19-MEL melanoma
TK-10 renal = test system: TK-10 renal
SF-268 CNS = test system: SF-268 CNS
CCRF-CEM leukemia = test system: CCRF-CEM leukemia
IGROV1 ovarian = test system: IGROV1 ovarian
A549 NSCLC = test system: A549 NSCLC
HL-60(TB) leukemia = test system: HL-60(TB) leukemia
COLO 205 colon = test system: COLO 205 colon
HT29 colon = test system: HT29 colon
UO-31 renal = test system: UO-31 renal
HOP-62 NSCLC = test system: HOP-62 NSCLC
EKVX NSCLC = test system: EKVX NSCLC
U251 CNS = test system: U251 CNS
DMS 114 small cell lung = test system: DMS 114 small cell lung
HOP-92 NSCLC = test system: HOP-92 NSCLC
A498 renal = test system: A498 renal
LOX IMVI melanoma = test system: LOX IMVI melanoma
DLD-1 colon = test system: DLD-1 colon
DMS 273 small cell lung = test system: DMS 273 small cell lung
M14 melanoma = test system: M14 melanoma
SF-295 CNS = test system: SF-295 CNS
SN12C renal = test system: SN12C renal
ACHN renal = test system: ACHN renal
SK-MEL-2 melanoma = test system: SK-MEL-2 melanoma
LXFL 529 NSCLC = test system: LXFL 529 NSCLC
OVCAR-3 ovarian = test system: OVCAR-3 ovarian
K-562 leukemia = test system: K-562 leukemia
SNB-78 CNS = test system: SNB-78 CNS
OVCAR-4 ovarian = test system: OVCAR-4 ovarian
MOLT-4 leukemia = test system: MOLT-4 leukemia
HCT-116 colon = test system: HCT-116 colon
UACC-257 melanoma = test system: UACC-257 melanoma
OVCAR-5 ovarian = test system: OVCAR-5 ovarian

With Cc1nc2ccccc2c(=O)n1/N=C(\N=Nc1ccccc1Cl)c1ccccc1 as the compound, how does the TGI (NCI-H522 lung) read?
The TGI was 60.9 µM.

What about the TGI (NCI-H23 lung) of the same compound?
The TGI was over 100 µM.

And the TGI (RXF 393 renal)?
Its TGI is 85.3 µM.

And the TGI (XF 498 CNS)?
Its TGI is 45.7 µM.

And the TGI (SK-OV-3 ovarian)?
The TGI was over 100 µM.

What about the TGI (OVCAR-8 ovarian) of the same compound?
The TGI was over 100 µM.

And the TGI (SK-MEL-5 melanoma)?
The TGI was 41.9 µM.

And the TGI (786-0 renal)?
Its TGI is 36.7 µM.

What about the TGI (KM20L2 colon) of the same compound?
The TGI was 48.7 µM.

And the TGI (CAKI-1 renal)?
Its TGI is 43 µM.

What about the TGI (RPMI-8226 leukemia) of the same compound?
The TGI was 49.2 µM.

What about the TGI (SNB-19 CNS) of the same compound?
Its TGI is over 100 µM.

And the TGI (HOP-18 NSCLC)?
The TGI was over 100 µM.

What about the TGI (SK-MEL-28 melanoma) of the same compound?
Its TGI is over 100 µM.

What about the TGI (HCT-15 colon) of the same compound?
The TGI was over 100 µM.

And the TGI (NCI-H460 lung)?
The TGI was over 100 µM.

And the TGI (SW-620 colon)?
Its TGI is 63.9 µM.

What about the TGI (UACC-62 melanoma) of the same compound?
Its TGI is 46.6 µM.

And the TGI (SF-539 CNS)?
The TGI was 43.1 µM.

And the TGI (M19-MEL melanoma)?
Its TGI is 67.2 µM.

What about the TGI (TK-10 renal) of the same compound?
Its TGI is over 100 µM.

What about the TGI (SF-268 CNS) of the same compound?
The TGI was over 100 µM.

And the TGI (CCRF-CEM leukemia)?
Its TGI is 55.2 µM.

What about the TGI (IGROV1 ovarian) of the same compound?
The TGI was 38.9 µM.

What about the TGI (A549 NSCLC) of the same compound?
The TGI was over 100 µM.

What about the TGI (HL-60(TB) leukemia) of the same compound?
Its TGI is 38.3 µM.

What about the TGI (COLO 205 colon) of the same compound?
The TGI was 49.2 µM.

And the TGI (HT29 colon)?
Its TGI is 47.6 µM.

What about the TGI (UO-31 renal) of the same compound?
The TGI was over 100 µM.

What about the TGI (HOP-62 NSCLC) of the same compound?
The TGI was over 100 µM.

What about the TGI (EKVX NSCLC) of the same compound?
Its TGI is 78.3 µM.

What about the TGI (U251 CNS) of the same compound?
The TGI was over 100 µM.

And the TGI (DMS 114 small cell lung)?
Its TGI is 37.8 µM.

And the TGI (HOP-92 NSCLC)?
Its TGI is over 100 µM.

What about the TGI (A498 renal) of the same compound?
The TGI was over 100 µM.

And the TGI (LOX IMVI melanoma)?
The TGI was 97.9 µM.

And the TGI (DLD-1 colon)?
The TGI was over 100 µM.

And the TGI (DMS 273 small cell lung)?
Its TGI is over 100 µM.

What about the TGI (M14 melanoma) of the same compound?
The TGI was 97.7 µM.

Which results are given for COc1ccc(C2N3CCCCC3[C@@H]3c4[nH]c5ccccc5c4CCN23)c(OC)c1 (some centres undefined)?
TGI (SF-295 CNS): > 100 µM; TGI (NCI-H23 lung): 58.7 µM; TGI (SN12C renal): 33.8 µM; TGI (RXF 393 renal): 34.6 µM; TGI (XF 498 CNS): 28.2 µM; TGI (SK-OV-3 ovarian): 92.3 µM; TGI (OVCAR-8 ovarian): > 100 µM; TGI (ACHN renal): 55.2 µM; TGI (SK-MEL-5 melanoma): 32.7 µM; TGI (786-0 renal): > 100 µM; TGI (KM20L2 colon): 41.9 µM; TGI (CAKI-1 renal): > 100 µM; TGI (RPMI-8226 leukemia): 45.6 µM; TGI (SK-MEL-2 melanoma): 34.7 µM; TGI (SNB-19 CNS): > 100 µM; TGI (HOP-18 NSCLC): > 100 µM; TGI (SK-MEL-28 melanoma): 36.9 µM; TGI (HCT-15 colon): > 100 µM; TGI (NCI-H460 lung): 50.2 µM; TGI (SW-620 colon): > 100 µM; TGI (UACC-62 melanoma): 31 µM; TGI (SF-539 CNS): 35.2 µM; TGI (M19-MEL melanoma): 37.4 µM; TGI (LXFL 529 NSCLC): 49.9 µM; TGI (OVCAR-3 ovarian): 85.3 µM; TGI (K-562 leukemia): > 100 µM; TGI (SNB-78 CNS): 49 µM; TGI (TK-10 renal): 69.1 µM; TGI (SF-268 CNS): 53 µM; TGI (OVCAR-4 ovarian): 56.5 µM; TGI (CCRF-CEM leukemia): 63.3 µM; TGI (IGROV1 ovarian): > 100 µM; TGI (MOLT-4 leukemia): 49.9 µM; TGI (A549 NSCLC): > 100 µM; TGI (HL-60(TB) leukemia): 42 µM; TGI (COLO 205 colon): 43.2 µM; TGI (HT29 colon): 32.6 µM; TGI (UO-31 renal): 74.1 µM; TGI (HOP-62 NSCLC): > 100 µM; TGI (EKVX NSCLC): > 100 µM; TGI (U251 CNS): > 100 µM; TGI (HCT-116 colon): 38 µM; TGI (DMS 114 small cell lung): 38.4 µM; TGI (HOP-92 NSCLC): > 100 µM; TGI (A498 renal): 30.1 µM; TGI (UACC-257 melanoma): 72.4 µM; TGI (DLD-1 colon): > 100 µM; TGI (DMS 273 small cell lung): 34.3 µM; TGI (OVCAR-5 ovarian): 79.7 µM; TGI (M14 melanoma): 30.5 µM
